Results on 27 compounds are retold here after US20040235666A1, “Substituted imidates as pesticidal agents” (priority 2001, published 2004).

Test system in one data set: not listed separately
In words: log P determination by HPLC (EEC Directive 79/831 Annex V.A8, reversed-phase C18). It counts as physicochemical. Particulars: reversed-phase C18 HPLC column, C18, 43° C., 0.1% aqueous phosphoric acid/acetonitrile gradient. On the procedure: The log P values given in Table 1 were determined in accordance with EEC Directive 79/831 Annex V.A8 by HPLC (High Performance Liquid Chromatography) using a reversed-phase column (C18). Temperature: 43° C. Mobile phase: 0.1% aqueous phosphoric acid, acetonitrile; linear gradient from 10% acetonitrile to 90% acetonitrile Calibration was carried out using unbranched alkan-2-ones (having 3 to 16 C atoms) with known log P values. (Determination of the log P values by the retention times using linear interpolation between two successive alkanones).
In turn, `CCC(c1ccc(Cl)cc1)N1CCS/C1=N\C#N` (stereo not drawn) [Example 39] showed a chromatographic logP of 2.81. Still for that read-out and setting: the figure for `CC1CN(C)/C(=N\C#N)N(C(C)c2ccc(Cl)cc2)C1` (stereo not drawn) [Example 50] is 2.52; for `CC(c1ccc(Cl)cc1)N1CCCN(C)/C1=N\C(N)=S` (stereo not drawn) [Example 43] it is 1.48. On the same count and under the same terms, the result for `CSc1ccc(Oc2cccc(CCN3CCSC3=NC#N)c2)cc1` [Example 21] reads 3.29; that for `N#CN=C1SCCN1C(CF)c1ccc(Cl)cc1` (stereo not drawn) [Example 18], 2.41.

On to `CC1CN/C(=N\C#N)N(C(C)c2ccc(Cl)cc2)C1` (stereo not drawn) [Example 49], for which the chromatographic logP was found to be 2.65.

As to `CC(c1ccc(Cl)cc1Cl)N1CCCO/C1=N\C#N` (stereo not drawn) [Example 47], the chromatographic logP came out at 2.43.

For `CC(c1ccc(Cl)cc1)N1COCC/C1=N\C#N` (stereo not drawn) [Example 52], the chromatographic logP was found to be 2.28. `CC(c1ccc(Cl)cc1)N1CCCN(C)C1=NC#N` (stereo not drawn) [Example 28]: the chromatographic logP was found to be 2.23. This chromatographic logP and that of the compound before are within 0.2 log units of each other. On the same count and under the same terms, the result for `CCc1ccc(C(C)N2CCSC2=NC#N)cc1` (stereo not drawn) [Example 7] reads 2.09; that for `Cc1ccc(C(C)N2CCSC2=NC#N)cc1` (stereo not drawn) [Example 12], 3.06.

Compound `CC(=O)Oc1ccc(CCN2CCS/C2=N\C#N)cc1` [Example 46] had a chromatographic logP of 1.89. Still for that read-out and setting: the result for `CC(C)c1ccc(C(C)N2CCSC2=NC#N)cc1` (stereo not drawn) [Example 15] reads 3.11; that for `CC(c1ccc(Cl)cc1)N1CC[S+]([O-])/C1=N\C#N` (stereo not drawn) [Example 40], 1.86. Same read-out and setting: the figure for `CC(c1ccc(Cl)cc1)N1CSCC/C1=N\C#N` (stereo not drawn) [Example 51] is 2.63; for `CC(c1ccc(Cl)cc1)N1OCCN(C)/C1=N\C#N` (stereo not drawn) [Example 42] it is 2.21. As for `CC(c1ccc(Cl)c(Cl)c1)N1CCCO/C1=N\C#N` (stereo not drawn) [Example 48], the chromatographic logP is 2.59. Turning to `CC(c1ccc(Cl)c(Cl)c1)N1CCSC1=NC#N` (stereo not drawn) [Example 13], the chromatographic logP turned out to be 2.84. Still for that read-out and setting: the figure for `CC(c1ccc(Cl)cc1)N1CCCN/C1=N\C(N)=S` (stereo not drawn) [Example 41] is 1.48. `CC(c1ccc(Cl)cc1)N1CCN(C)C1=NC#N` (stereo not drawn) [Example 23] registered a chromatographic logP of 2.29. Still for that read-out and setting: the result for `CSc1ccc(Oc2ccccc2CCN2CCS/C2=N\C#N)cc1` [Example 45] reads 3.33; that for `N#CN=C1SCCN1C1Cc2ccc(Cl)cc2C1` (stereo not drawn) [Example 33], 2.68.

For the next data set, the system named is Meloidogyne incognita larvae. In words: Meloidogyne test/aqueous system. The format is in vivo. Particulars: 40 ppm; nematicidal action by activity of the larvae; 96-well plate; 100% = no activity found. On the procedure:
Meloidogyne Test/Aqueous System To prepare a suitable preparation of active compound, 1 part by weight of active compound is mixed with 1 000 parts by weight of methanol, and per preparation to be tested, 10 μl are added to a well of a 96-well plate (from Greiner), where the solvent evaporates. In the 96-well plates, the wells containing the active compound are filled with lecithin solution (0.01%) and Meloidogyne incognita larvae suspension. The concentration of active compound is now 40 ppm. After the time indicated in the table, the nematicidal action is determined in % by the activity of the larvae. 100% means that no activity has been found; 0% means that the activity in the treated wells corresponds to that of the untreated control.
Take `CC(c1ccc(Cl)cc1)N1CCSC1=NC#N` (stereo not drawn) [Example 14]: the “Effect in % after 4 days” value was found to be 100%.

In a further data set the test system is Meloidogyne incognita egg/larvae. In words: Meloidogyne test (sand, lettuce, gall formation). The format is in vivo. Particulars: 20 ppm; nematicidal action by gall formation on lettuce roots; 100% = no galls. On the procedure:
To prepare a suitable preparation of active compound, 1 part by weight of active compound is mixed with 30 parts by weight of dimethylformamide and 1 part by weight of emulsifier (alllylaryl polyglycol ether), and the concentrate is diluted with water to the desired concentration.
Containers are filled with sand, solution of active compound, Meloidogyne incognita egg/larvae suspension and lettuce seeds. The lettuce seeds germinate and the plants develop. On the roots, galls are formed.
After the period of time indicated in the table, the nematicidal action is determined in % using gall formation as a measure. 100% means that no galls were found; 0% means that the number of galls on the treated plants corresponds to that of the untreated control.
In this test, for example, the following compounds of the Preparation Examples show good activity: […]
For `CC(c1ccc(Cl)cc1)N1CCCC1=NC#N` (stereo not drawn) [Example 22], the “Effect in % after 4 days” value was found to be 100%. Consider `CC(c1ccc(Cl)cc1)N1CCSC1=NC#N` (stereo not drawn) [Example 14], for which the “Effect in % after 4 days” value worked out at 100%. Still for that read-out and setting: the figure for `CC(c1ccc(Cl)cc1)N1CCCN(C)C1=NC#N` (stereo not drawn) [Example 28] is 95%. With `CCC(c1ccccc1Cl)N1CCSC1=NC#N` (stereo not drawn) [Example 4], the “Effect in % after 4 days” value is recorded as 100%.

On to `CC(c1ccc(Cl)cc1)N1CCNC1=NC#N` (stereo not drawn) [Example 1, 1-[1-(4-Chlorophenyl)ethyl]-2-imidazolidinylidenecyanamide], for which the “Effect in % after 4 days” value is 98%. Same read-out and setting: the figure for `CC(c1ccccc1Cl)N1CCSC1=NC#N` (stereo not drawn) [Example 3] is 100%; for `CC(c1ccc(Cl)cc1)N1CCN(C)C1=NC#N` (stereo not drawn) [Example 23] it is 90%.

By chromatographic logP is commonly meant lipophilicity estimated from chromatographic retention. A higher chromatographic logP goes with a more lipophilic compound.
